Data taken from publication PMC5062169, “Structural basis for ligand recognition by a Cache chemosensory domain that mediates carboxylate sensing in Pseudomonas syringae” (Scientific Reports, 2016).

The molecules below were run against T1, PscD (PscD-SD, Cache sensor domain of chemoreceptor PscD) (Pseudomonas syringae, UniProt A0ABY1U976). Settings: Biolog plate compound, exact concentration unknown; binder.
T1 construct: gene CFBP3846_03581; sensor domain, Gln31-Trp188, N-terminal His6 tag
T1 sequence (A0ABY1U976 31-188): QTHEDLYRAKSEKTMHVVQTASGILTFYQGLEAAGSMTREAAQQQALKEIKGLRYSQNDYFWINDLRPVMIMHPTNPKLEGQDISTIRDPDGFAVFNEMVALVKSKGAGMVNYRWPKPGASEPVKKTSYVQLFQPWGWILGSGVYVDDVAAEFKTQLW
Set-up: fluorescence thermal shift (SYPRO Orange) screen of Biolog PM1/PM2 compounds, delta Tm
Source text: We used high-throughput fluorescence thermal shift (FTS) assays (as described previously[16]) to screen for potential ligands of PscD-SD. FTS assays are based on the principle that ligands stabilise proteins upon binding, causing an increase in the melting temperature of the protein[22][23]. Binding can therefore be rapidly screened by measuring the difference in the temperature midpoint of unfolding (ΔTm) of a protein in the presence and absence of potential ligands. In our FTS assays, the Tm was measured by monitoring an increase in fluorescence of a dye with affinity for hydrophobic parts of the protein (i.e. SYPRO Orange), which are exposed as the protein unfolds. We screened the recombinant PscD-SD protein in FTS assays against the compounds in Biolog Phenotype Microarray (PM) plates 1 and 2 (Supplementary Tables 1 and 2). Each plate contains 95 different compounds (e.g., organic acids, sugars) and a water (no ligand) control. For use in FTS assays, the compounds were resuspended directly in water, thus generating a library of biologically relevant potential ligands. […] Fluorescent thermal shift (FTS) assays were conducted as reported previously. PscD-SD was screened for potential ligands against Biolog Phenotype Microarray (PM) plates 1 and 2 (Biolog, Hayward, CA, USA). For initial qualitative, high-throughput screening, ligands were prepared by dissolving Biolog PM compounds in 50 μL of water (each) to obtain a final concentration of approximately 10–20 mM (the exact concentrations vary from well-to-well). Screens were set up in Lightcycler 480 multiwell plates (Roche Diagnostics, Auckland, NZ) with 20 μM protein, a 5x concentration of SYPRO orange (Life Technologies, Carlsbad, CA, USA) and 5 μL of the test compound (i.e. resuspended Biolog ligands) added to each well. The plate was covered with Lightcycler 480 sealing film (Roche Diagnostics) and fluorescence signal was monitored as the temperature was increased from 20 °C to 80 °C at a rate of 1.2 °C.min^−1 in a Lightcycler 480 (Roche Diagnostics). Initial hits were further tested using known concentrations (0, 1, 2, 5 and 10 mM) of each potential ligand to confirm binding. The ligands were prepared as 10x stocks, 2 μL were added to each well, and the experiments were conducted as described above. The first derivative values (−dF/dt) from the raw fluorescence data were used to determine the melting temperature (Tm). Three biological replicates (from independently cultured and purified batches of protein) were performed for each plate screened.

`C[N+](C)(C)CC(O)CC(=O)[O-]` (racemic) [D,L-Carnitine] and `CC(O)CC(=O)O` (stereo not drawn) [β-Hydroxy Butyric Acid] are within error of each other in “Δ Tm” value: -0.02 ± 0.02 °C for the first, 0.03 ± 0.05 °C for the second.

`NCC(O)c1ccc(O)cc1` (racemic) [D,L-Octopamine] and `O=C(O)c1ccc(O)cc1` [4-Hydroxy Benzoic Acid] are the same in “Δ Tm” value: 0.03 ± 0.03 °C for the first, 0.03 ± 0.03 °C for the second.

`C[C@@H](O)[C@@H](C)O` [2,3-Butanediol] and `CC(C)[C@H](N)C(=O)O` [L-Valine] are within error of each other in “Δ Tm” value: 0.05 ± 0.03 °C for the first, 0.03 ± 0.03 °C for the second.

First: O=CC[C@H](O)[C@H](O)CO [2-Deoxy-D-Ribose]
Second: OC[C@@H](O)C(O)[C@H](O)CO [D-Arabitol]
The “Δ Tm” value of the first is higher: 0.66 ± 0.05 °C for the first, 0.00 ± 0.05 °C for the second.

First: O=C(O)c1ccccc1O [2-Hydroxy Benzoic Acid]
Second: N[C@@H](Cc1ccccc1)C(=O)O [L-Phenylalanine]
The “Δ Tm” value of the first is lower: 0.00 ± 0.04 °C for the first, 0.08 ± 0.00 °C for the second.

First: O=C(CO)[C@@H](O)[C@H](O)[C@@H](O)C(=O)O [5-keto-D-Gluconic Acid]
Second: O=C(CO)[C@@H](O)[C@@H](O)[C@H](O)CO [D-Tagatose]
The “Δ Tm” value of the first is higher: 0.10 ± 0.02 °C for the first, 0.00 ± 0.04 °C for the second.

First: CC(N)=O [Acetamide]
Second: C[C@H](N)C(N)=O [L-Alaninamide]
The “Δ Tm” value of the first is lower: 0.00 ± 0.00 °C for the first, 0.08 ± 0.00 °C for the second.

`N#C[C@H](O[C@@H]1O[C@H](CO[C@@H]2O[C@H](CO)[C@@H](O)[C@H](O)[C@H]2O)[C@@H](O)[C@H](O)[C@H]1O)c1ccccc1` [Amygdalin] and `OC[C@H]1O[C@H](OC[C@H]2O[C@H](O[C@]3(CO)O[C@H](CO)[C@@H](O)[C@@H]3O)[C@H](O)[C@@H](O)[C@@H]2O)[C@H](O)[C@@H](O)[C@H]1O` [D-Raffinose] are within error of each other in “Δ Tm” value: 0.03 ± 0.03 °C for the first, 0.00 ± 0.00 °C for the second.

`OC[C@H]1O[C@@H](Oc2ccc(O)cc2)[C@H](O)[C@@H](O)[C@@H]1O` [Arbutin] and `OCc1ccccc1O[C@@H]1O[C@H](CO)[C@@H](O)[C@H](O)[C@H]1O` [Salicin] are within error of each other in “Δ Tm” value: 0.03 ± 0.05 °C for the first, 0.08 ± 0.00 °C for the second.

First: C/C(=C/C(=O)O)C(=O)O [Citraconic Acid]
Second: O=C(O)C(=O)O [Oxalic Acid]
The “Δ Tm” value of the first is higher: 0.08 ± 0.00 °C for the first, 0.03 ± 0.03 °C for the second.

First: CC(O)(CC(=O)O)C(=O)O (stereo not drawn) [Citramalic Acid]
Second: O=C(O)CC(=O)O [Malonic Acid]
The “Δ Tm” value of the first is lower: 0.03 ± 0.03 °C for the first, 0.08 ± 0.00 °C for the second.

`OC1OC[C@@H](O)[C@@H](O)[C@@H]1O` (stereo partly drawn) [D-Arabinose] and `CO[C@@H]1OC[C@@H](O)[C@H](O)[C@H]1O` [β-Methyl-D-Xyloside] are within error of each other in “Δ Tm” value: 0.05 ± 0.05 °C for the first, 0.10 ± 0.11 °C for the second.

`C[C@@H](O)[C@H](O)[C@H](O)[C@@H](O)C=O` [D-Fucose] and `CC(=O)N[C@@H](CO)[C@@H](O)[C@H](O)[C@H](O)CO` [N-Acetyl-D-Glucosaminitol] are within error of each other in “Δ Tm” value: 0.10 ± 0.11 °C for the first, 0.08 ± 0.00 °C for the second.

Going from `N[C@H]1C(O)O[C@H](CO)[C@@H](O)[C@@H]1O` (stereo partly drawn) [D-Glucosamine] to `OC[C@H]1O[C@@H](O)[C@H](O)[C@H](O)[C@@H]1O` [β-D-Allose], the “Δ Tm” value rises from -0.25 ± 0.03 °C to 0.08 ± 0.00 °C.

Compared with `COC(=O)[C@@H](C)O` [D-Lactic Acid Methyl Ester], `CC[C@H](C)[C@H](N)C(=O)O` [L-Isoleucine] is higher in “Δ Tm” value: 0.00 ± 0.00 °C for the first, 0.08 ± 0.00 °C for the second.

`OC[C@H]1O[C@@](CO)(O[C@H]2O[C@H](CO)[C@@H](O)[C@H](O)[C@H]2O)[C@@H](O[C@H]2O[C@H](CO)[C@@H](O)[C@H](O)[C@H]2O)[C@@H]1O` [D-Melezitose] and `OC[C@H]1O[C@H](OC[C@H]2O[C@H](OC[C@H]3O[C@H](O[C@]4(CO)O[C@H](CO)[C@@H](O)[C@@H]4O)[C@H](O)[C@@H](O)[C@@H]3O)[C@H](O)[C@@H](O)[C@H]2O)[C@H](O)[C@@H](O)[C@H]1O` [Stachyose] are within error of each other in “Δ Tm” value: 0.03 ± 0.03 °C for the first, 0.05 ± 0.05 °C for the second.

Going from `O=C(CO)CO` [Dihydroxyacetone] to `N[C@@H](CCO)C(=O)O` [L-Homoserine], the “Δ Tm” value falls from 0.35 ± 0.14 °C to 0.03 ± 0.03 °C.

`NCC(=O)O` [Glycine] and `NC(=O)CCC(=O)O` [Succinamic Acid] are within error of each other in “Δ Tm” value: 0.05 ± 0.05 °C for the first, 0.18 ± 0.10 °C for the second.

`O=C(O)[C@@H]1C[C@@H](O)CN1` [Hydroxy-L-Proline] and `O=C1CC[C@@H](C(=O)O)N1` [L-Pyroglutamic Acid] are within error of each other in “Δ Tm” value: 0.03 ± 0.05 °C for the first, 0.08 ± 0.00 °C for the second.

`C=C(CC(=O)O)C(=O)O` [Itaconic Acid] and `CC(=O)N[C@@H](CCC(=O)O)C(=O)O` [N-Acetyl-L-Glutamic Acid] are within error of each other in “Δ Tm” value: -0.05 ± 0.33 °C for the first, 0.08 ± 0.00 °C for the second.

Compared with `OC[C@H](O)C(O)[C@@H](O)CO` [L-Arabitol], `OC[C@@H](O)[C@@H](O[C@@H]1O[C@H](CO)[C@H](O)[C@H](O)[C@H]1O)[C@H](O)[C@@H](O)CO` [Lactitol] is higher in “Δ Tm” value: 0.03 ± 0.03 °C for the first, 0.08 ± 0.00 °C for the second.

`N=C(N)NCCC[C@H](N)C(=O)O` [L-Arginine] and `NCCCC[C@H](N)C(=O)O` [L-Lysine] are within error of each other in “Δ Tm” value: 0.03 ± 0.03 °C for the first, 0.10 ± 0.11 °C for the second.

`N[C@@H](Cc1c[nH]cn1)C(=O)O` [L-Histidine] and `CC(C)C[C@H](N)C(=O)O` [L-Leucine] are within error of each other in “Δ Tm” value: 0.00 ± 0.04 °C for the first, 0.05 ± 0.03 °C for the second.

`CSCC[C@H](N)C(=O)O` [L-Methionine] and `CCC(C)N` (stereo not drawn) [Sec-Butylamine] are within error of each other in “Δ Tm” value: 0.43 ± 0.39 °C for the first, 0.00 ± 0.04 °C for the second.

`OC[C@@H](O)[C@@H](O[C@H]1O[C@H](CO)[C@@H](O)[C@H](O)[C@H]1O)[C@H](O)[C@@H](O)CO` [Maltitol] and `O=C(CO)[C@@H](O[C@H]1O[C@H](CO)[C@@H](O)[C@H](O)[C@H]1O)[C@H](O)[C@H](O)CO` [Turanose] are within error of each other in “Δ Tm” value: 0.05 ± 0.05 °C for the first, 0.03 ± 0.03 °C for the second.

`O=C(O)[C@H](O)[C@@H](O)[C@H](O)[C@H](O)CO[C@H]1O[C@H](CO)[C@H](O)[C@H](O)[C@H]1O` [Melibionic Acid] and `CO[C@H]1O[C@H](CO)[C@@H](O)[C@H](O)[C@@H]1O` [α-Methyl-D-Mannoside] are within error of each other in “Δ Tm” value: 0.08 ± 0.00 °C for the first, 0.05 ± 0.03 °C for the second.

Compared with `CC(=O)N[C@H]1C(O)O[C@H](CO)[C@H](O)[C@@H]1O` (stereo partly drawn) [N-Acetyl-D-Galactosamine], `CC(=O)N[C@H]1[C@H]([C@H](O)[C@H](O)CO)OC(O)(C(=O)O)C[C@@H]1O` (stereo partly drawn) [N-Acetyl-Neuraminic Acid] is higher in “Δ Tm” value: 0.00 ± 0.00 °C for the first, 0.08 ± 0.00 °C for the second.

First: NCCCCN [Putrescine]
Second: O=C(O)CCCCCCCCC(=O)O [Sebacic Acid]
The “Δ Tm” value of the first is lower: 0.03 ± 0.05 °C for the first, 0.48 ± 0.09 °C for the second.

Going from `O=C(O)[C@]1(O)C[C@@H](O)[C@@H](O)[C@H](O)C1` [Quinic Acid] to `OC[C@@]12OC[C@@H](O1)[C@@H](O)[C@@H](O)[C@@H]2O` [Sedoheptulosan], the “Δ Tm” value rises from 0.00 ± 0.04 °C to 0.08 ± 0.00 °C.

Compared with `C/C=C/C=C/C(=O)O` [Sorbic Acid], `OC[C@H]1O[C@@H]2O[C@H]3[C@H](O)[C@@H](O)[C@@H](O[C@H]4[C@H](O)[C@@H](O)[C@@H](O[C@H]5[C@H](O)[C@@H](O)[C@@H](O[C@H]6[C@H](O)[C@@H](O)[C@@H](O[C@H]7[C@H](O)[C@@H](O)[C@@H](O[C@H]1[C@H](O)[C@H]2O)O[C@@H]7CO)O[C@@H]6CO)O[C@@H]5CO)O[C@@H]4CO)O[C@@H]3CO` [α-Cyclodextrin] is lower in “Δ Tm” value: 0.65 ± 0.09 °C for the first, 0.08 ± 0.0 °C for the second.

`OC[C@H]1O[C@@H]2O[C@H]3[C@H](O)[C@@H](O)[C@@H](O[C@H]4[C@H](O)[C@@H](O)[C@@H](O[C@H]5[C@H](O)[C@@H](O)[C@@H](O[C@H]6[C@H](O)[C@@H](O)[C@@H](O[C@H]7[C@H](O)[C@@H](O)[C@@H](O[C@H]8[C@H](O)[C@@H](O)[C@@H](O[C@H]1[C@H](O)[C@H]2O)O[C@@H]8CO)O[C@@H]7CO)O[C@@H]6CO)O[C@@H]5CO)O[C@@H]4CO)O[C@@H]3CO` [β-Cyclodextrin] was tested, and the “Δ Tm” value was 0.45 ± 0.0 °C.

Same assay, conditions: Biolog plate compound, exact concentration unknown; binder; Δ Tm

`O=C(O)[C@@H](O)[C@H](O)C(=O)O` [D-Tartaric Acid] and `O=C(O)[C@H](O)[C@@H](O)C(=O)O` [L-Tartaric Acid] are within error of each other in “Δ Tm” value: 0.10 ± 0.11 °C for the first, 0.33 ± 0.29 °C for the second.
